Assay: mn = molality of the nth substance listed, in mol/kg
Settings: Liquid, Vibrating tube method

[Br-].[Li+] [lithium bromide] + CCO
Settings | mass density [kg/m3]
313.16 K, 69943 kPa, m1 = 2.272 | 954.83
313.16 K, 70035 kPa, m1 = 0.2335 | 838.62
313.16 K, 80024 kPa, m1 = 2.833 | 989.48
313.16 K, 99649 kPa, m1 = 1.462 | 925.34
313.17 K, 1995 kPa, m1 = 3.368 | 968.15
313.17 K, 5344 kPa, m1 = 3.368 | 970.84
313.17 K, 10286 kPa, m1 = 3.368 | 974.66
313.17 K, 19807 kPa, m1 = 3.368 | 981.61
313.17 K, 29957 kPa, m1 = 3.368 | 988.47
313.17 K, 40021 kPa, m1 = 2.833 | 967.43
313.17 K, 40159 kPa, m1 = 3.368 | 994.86
313.17 K, 49914 kPa, m1 = 3.368 | 1000.58
313.17 K, 80160 kPa, m1 = 2.272 | 960.11
313.17 K, 89963 kPa, m1 = 2.272 | 965.03
313.17 K, 99603 kPa, m1 = 3.368 | 1026.1
313.18 K, 59836 kPa, m1 = 3.368 | 1006.06
313.18 K, 69925 kPa, m1 = 3.368 | 1011.36
313.18 K, 89986 kPa, m1 = 3.368 | 1021.4
313.18 K, 100029 kPa, m1 = 2.272 | 969.91
313.19 K, 1459 kPa, m1 = 0.5972 | 812.65
313.2 K, 79843 kPa, m1 = 3.368 | 1016.39
323.13 K, 5012 kPa, m1 = 0.2335 | 784.23
323.13 K, 79954 kPa, m1 = 0.5972 | 859.95
323.14 K, 10001 kPa, m1 = 0.2335 | 788.63
323.14 K, 19956 kPa, m1 = 2.833 | 946.78
323.14 K, 29926 kPa, m1 = 3.368 | 981.06
323.14 K, 39945 kPa, m1 = 2.272 | 930.75
323.14 K, 39954 kPa, m1 = 1.462 | 885.66
323.14 K, 49912 kPa, m1 = 0.2335 | 819.58
323.14 K, 69926 kPa, m1 = 2.833 | 977.81
323.14 K, 70002 kPa, m1 = 1.462 | 904.07
323.14 K, 70002 kPa, m1 = 3.368 | 1004.85
323.15 K, 1023 kPa, m1 = 2.833 | 931.78
323.15 K, 1026 kPa, m1 = 0.5972 | 803.74
323.15 K, 1032 kPa, m1 = 2.272 | 901.6
323.15 K, 1032 kPa, m1 = 3.368 | 959.14
323.15 K, 1035 kPa, m1 = 1.462 | 855.48
323.15 K, 1203 kPa, m1 = 0.9499 | 825.48
323.15 K, 2012 kPa, m1 = 0.2335 | 781.53
323.15 K, 5014 kPa, m1 = 3.368 | 962.48
323.15 K, 5021 kPa, m1 = 0.5972 | 807.24
323.15 K, 5021 kPa, m1 = 2.833 | 935.15
323.15 K, 5024 kPa, m1 = 2.272 | 905.02
323.15 K, 5106 kPa, m1 = 1.462 | 859.08
323.15 K, 5451 kPa, m1 = 0.9499 | 829.11
323.15 K, 9995 kPa, m1 = 2.833 | 939.18
323.15 K, 10002 kPa, m1 = 2.272 | 909.13
323.15 K, 10023 kPa, m1 = 0.5972 | 811.53
323.15 K, 10026 kPa, m1 = 0.9499 | 832.95
323.15 K, 10065 kPa, m1 = 1.462 | 863.3
323.15 K, 19957 kPa, m1 = 0.9499 | 840.97
323.15 K, 19957 kPa, m1 = 3.368 | 974.07
323.15 K, 20023 kPa, m1 = 0.2335 | 797.12
323.15 K, 29784 kPa, m1 = 2.833 | 953.72
323.15 K, 29928 kPa, m1 = 0.9499 | 848.61
323.15 K, 29975 kPa, m1 = 1.462 | 878.73
323.15 K, 29978 kPa, m1 = 0.5972 | 827.54
323.15 K, 29986 kPa, m1 = 2.272 | 924.09
323.15 K, 39784 kPa, m1 = 0.9499 | 855.75
323.15 K, 39926 kPa, m1 = 0.2335 | 812.55
323.15 K, 39984 kPa, m1 = 3.368 | 987.61
323.15 K, 49921 kPa, m1 = 2.272 | 937
323.15 K, 49926 kPa, m1 = 1.462 | 892.13
323.15 K, 49928 kPa, m1 = 0.9499 | 862.68
323.15 K, 50001 kPa, m1 = 0.5972 | 841.84
323.15 K, 50021 kPa, m1 = 2.833 | 966.58
323.15 K, 59924 kPa, m1 = 3.368 | 999.37
323.15 K, 59926 kPa, m1 = 0.2335 | 825.76
323.15 K, 59957 kPa, m1 = 1.462 | 898.25
323.15 K, 59986 kPa, m1 = 2.833 | 972.34
323.15 K, 60024 kPa, m1 = 0.9499 | 869.15
323.15 K, 69794 kPa, m1 = 0.9499 | 875
323.15 K, 69794 kPa, m1 = 2.272 | 948.43
323.15 K, 69923 kPa, m1 = 0.5972 | 854.32
323.15 K, 79923 kPa, m1 = 1.462 | 909.56
323.15 K, 79924 kPa, m1 = 0.2335 | 837.48
323.15 K, 79926 kPa, m1 = 3.368 | 1010.05
323.15 K, 79935 kPa, m1 = 0.9499 | 880.66
323.15 K, 79953 kPa, m1 = 2.272 | 953.9
323.15 K, 79956 kPa, m1 = 2.833 | 983.13
323.15 K, 89924 kPa, m1 = 3.368 | 1015.15
323.15 K, 89925 kPa, m1 = 0.9499 | 885.81
323.15 K, 89926 kPa, m1 = 2.272 | 959.13
323.15 K, 89956 kPa, m1 = 0.2335 | 843.04
323.15 K, 89958 kPa, m1 = 2.833 | 988.29
323.15 K, 90021 kPa, m1 = 0.5972 | 865.14
323.15 K, 99678 kPa, m1 = 2.833 | 993.25
323.15 K, 99745 kPa, m1 = 0.5972 | 869.74
323.15 K, 99956 kPa, m1 = 3.368 | 1020.21
323.15 K, 99957 kPa, m1 = 1.462 | 920.17
323.15 K, 99965 kPa, m1 = 0.2335 | 847.91
323.15 K, 99969 kPa, m1 = 0.9499 | 890.57
323.15 K, 99985 kPa, m1 = 2.272 | 964.32
323.16 K, 10058 kPa, m1 = 3.368 | 966.55
323.16 K, 19945 kPa, m1 = 0.5972 | 819.71
323.16 K, 19956 kPa, m1 = 2.272 | 916.87
323.16 K, 20003 kPa, m1 = 1.462 | 871.29
323.16 K, 29921 kPa, m1 = 0.2335 | 805.03
323.16 K, 39928 kPa, m1 = 2.833 | 960.39
323.16 K, 49957 kPa, m1 = 3.368 | 993.67
323.16 K, 60002 kPa, m1 = 2.272 | 942.94
323.16 K, 70004 kPa, m1 = 0.2335 | 831.8
323.16 K, 89956 kPa, m1 = 1.462 | 914.93
323.17 K, 39926 kPa, m1 = 0.5972 | 834.87
323.18 K, 59974 kPa, m1 = 0.5972 | 848.31

Source: the NIST ThermoML archive (doi:10.1021/je1003065)
